# From patent EP4813381A1, “PHARMACEUTICAL USE OF GUAIANE SESQUITERPENE DERIVATIVE” (Nanjing University Of Chinese Medicine, priority 2023, dated 2025)
# Columns and labels:
# [1] = system: fibrosis-related factors (Acta2, Col1a1, Tgfb1); test: CCl4 acute liver injury model in mice: Q-PCR of fibrosis-related factors in liver; format: in vivo, C57BL/6 mice; conditions: liver mRNA
# Experimental: They were acclimated for 7 days before use in experiments. • Experimental Methods: Establishment of Acute Liver Injury Model in Mice and Group-Specific Drug Administration • Mice were randomly assigned to groups. One group was arbitrarily designated as the normal group, while the remaining groups served as model group, Compound 1 group, Hydrochloride 20 group, Fumarate 21 group, and Silibinin group, with 6 mice per group. Except for the normal group receiving 10 mL olive oil/kg via injection, all other mice received 0.5 mL CCl4 + 9.5 mL olive oil/kg body weight via intraperitoneal injection, maintaining a CCl4 to olive oil ratio of 1:19. Starting from day 1 of modeling, Compound 1, Hydrochloride 20, and Fumarate 21 were administered orally for 3 consecutive days. […] The blood was allowed to stand at room temperature for 2 hours, then centrifuged at 3000 rpm for 20 minutes. Serum was aspirated, aliquoted, and stored at -70 °C for future use. After blood collection, euthanize mice by cervical dislocation. Perform laparotomy to remove the liver. Rinse twice with pre-chilled PBS. Excise the left hepatic lobe tissue. […] Store remaining tissue at -70 °C for future use. • Serum AST and ALT Assay: Use 10 µL of each sample for testing. Determine mouse serum AST and ALT levels according to the operating manual. Measure absorbance at 510 nm using an enzyme-linked immunosorbent assay (ELISA) reader. Calculate sample concentration (U/L) based on the standard curve.
# Q-PCR Analysis: Tissue total RNA extraction, cDNA synthesis, and PCR amplification methods are identical to Example 4. Additional primer information is as follows:
# Data Statistics: All data are expressed as means ± standard error of the mean (S.E.M.). Differences were analyzed for significance using analysis of variance (ANOVA). For groups showing significant differences in ANOVA, one-way ANOVA followed by Dunnett's test was performed to compare intergroup differences.
# [2] = system: inflammatory cytokines (TNF, IL-6, IL-1); test: LPS mouse sepsis model: Q-PCR of inflammatory factor mRNA in lung, liver and kidney; format: in vivo, C57BL/6 mice; conditions: sepsis mice
# Text: Gently pipette to mix the above reagents. The reaction conditions are as follows:
# Detailed information is as follows:
# MDSCs = test: Inhibition of MDSC chemotaxis (Transwell, Hepa1-6 tumor-conditioned medium); format: cell-based, mice; conditions: 12 h treatment, 24 h Transwell
# Experimental: Hepa1-6 mouse hepatocellular carcinoma cells were uniformly seeded into 6-well plates. After cells reached confluence, supernatant was aspirated, and 1-1.5 mL fresh medium was added to each well. Following 24 h culture, supernatant was collected, centrifuged at 1600 rpm for 5 min, aspirated, and filtered through a 0.22 µm membrane to obtain tumor-conditioned medium for subsequent use. Euthanize mice by cervical dislocation and immerse in 75% ethanol solution for 5 min. Under sterile conditions, remove the tibia, cut both ends of the bone, and aspirate the bone marrow into a 1 mL syringe. Repeat flushing into a 15 mL centrifuge tube. Centrifuge at 1600 rpm for 5 min to collect bone marrow cells. Wash twice with 1×PBS. Resuspend cells in complete RPMI 1640 medium containing cytokines GM-CSF (10 ng/mL) and IL-4 (10 ng/mL) to stimulate differentiation into MDSCs. Count cells, adjust density to 1×10^6 cells/mL, and uniformly seed into 24-well plates at 300 µL per well. […] Centrifuge at 1600 rpm for 5 min, remove supernatant, resuspend cells in 300 µL fresh medium, and place into Transwell chambers. Add 600 µL normal medium (control group) or tumor-conditioned medium (model group) to the lower chamber. Co-culture for 24 h.
# 4T1 cells = format: in vivo, BALB/c mice; conditions: 4T1, oral 40 µmol/kg/day, 3 weeks
# Experimental: 4T1 cells were cultured and expanded in vitro. […] A 100 µL aliquot of this suspension was injected subcutaneously into the left forelimb axilla of female BALB/c mice. […] Daily oral administration was performed for 3 weeks. During the treatment period, mouse body weight and tumor diameter were measured daily. At the end of the experiment, mice were euthanized by cervical dislocation, and tumors were removed for weighing. Tumor volume (TV) was calculated using the formula: TV = 1/2 × a × b^2, where a represents the longest diameter of the tumor and b represents the shortest diameter.
# [3] = Conversion rate of salt-form prodrugs to parent compound in HEPES buffer solution; format: physicochemical; conditions: conversion to Compound 1, HEPES buffer pH 7.4, 37 °C
# Procedure, shortened: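 Salt-form prodrug dissolved in water was mixed 1:1 with HEPES buffer pH 7.4 (or mouse serum) and incubated at 37°C. Aliquots were quenched with methanol and centrifuged, and supernatants taken at 1, 2, 4, 8 and 12 h were analysed by HPLC. Conversion was followed by peak areas.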
# [4] = kidney mRNA (relative, Gapdh), oral gavage 0.1 mg/kg
# [5] = kidney mRNA (relative, Gapdh), oral gavage 1 mg/kg
# [6] = liver mRNA (relative, Gapdh), oral gavage 0.1 mg/kg
# [7] = liver mRNA (relative, Gapdh), oral gavage 1 mg/kg
# [8] = lung mRNA (relative, Gapdh), oral gavage 0.1 mg/kg
# [9] = lung mRNA (relative, Gapdh), oral gavage 1 mg/kg
compound,measurement,setting,value
C=C1C(=O)O[C@@H]2[C@@H]3[C@]4(CC[C@@]3(C)O)C[C@]4(C)CC[C@@H]12 [compound 1],Acta2,[1]; oral 0.1 mg/kg,3.82±0.88
same,Col1a1,[1]; oral 0.1 mg/kg,2.28±0.80
same,Tgfb1,[1]; oral 0.1 mg/kg,1.39±0.58
same,Acta2,[1]; oral 1 mg/kg,2.34±0.16
same,Col1a1,[1]; oral 1 mg/kg,1.40±0.31
same,Tgfb1,[1]; oral 1 mg/kg,1.08±0.21
same,Il1,[2]; [4],7.01±0.33
same,Il6,[2]; [4],7.55±2.08
same,Tnf,[2]; [4],7.17±1.22
same,Il1,[2]; [5],3.05±0.58
same,Il6,[2]; [5],3.11±0.29
same,Tnf,[2]; [5],6.59±0.18
same,Il1,[2]; [6],11.32±2.66
same,Il6,[2]; [6],8.50±3.02
same,Tnf,[2]; [6],8.68 ± 2.12
same,Il1,[2]; [7],4.84±0.60
same,Il6,[2]; [7],5.10±0.82
same,Tnf,[2]; [7],7.01±0.92
same,Il1,[2]; [8],15.29±0.88
same,Il6,[2]; [8],19.17±0.51
same,Tnf,[2]; [8],8.58 ± 0.85
same,Il1,[2]; [9],7.89±1.44
same,Il6,[2]; [9],11.67±1.84
same,Tnf,[2]; [9],7.99±1.36
same,Suppression Rate (%),MDSCs; 1 µM,42.3%
same,Suppression Rate (%),MDSCs; 10 µM,83.3%
CN(C)C[C@@H]1C(=O)O[C@H]2[C@H]1CC[C@@]1(C)C[C@]13CC[C@@](C)(O)[C@H]23 [compound 20],antitumor effects,4T1 cells,no significant antitumor effects
same,Release rate,[3]; 1 h,6.2%
same,Release rate,[3]; 2 h,13.8%
same,Release rate,[3]; 4 h,21.7%
same,Release rate,[3]; 8 h,44.3%
same,Release rate,[3]; 12 h,59.1%
